Values quoted from earlier work, collected in PMC3985299, “Single Ascending Dose Safety and Pharmacokinetics of CDRI-97/78: First-in-Human Study of a Novel Antimalarial Drug” (Malaria Research and Treatment, 2014).

Key:
P. cynomolgi = tested on: P. cynomolgi; design: method as in printed; settings: P. cynomolgi in rhesus monkeys; background, ref not given; cited from earlier work
[1] = tested on: chloroquine resistant P. falciparum; design: method as in printed; settings: chloroquine resistant P. falciparum in vitro; background, ref not given; cited from earlier work

## C=C(c1ccc(OC(C)(C)COC(=O)CCC(=O)O)cc1)C1COC2(OO1)C1CC3CC(C1)CC2C3 (centres unmarked) [CDRI 97/78, Mono[2methyl2[3(1spiro[tricycle[3.3.1.13,7]decane2,3′-[1,2,4]trioxan] 6′-ylethenyl)phenoxy]propyl] ester]
P. cynomolgi
  Antimalarial activity: powerful antimalarial activity
[1]
  Antimalarial activity: powerful antimalarial activity
